Results as given in ChEMBL document CHEMBL3797047, “Discovery of indirubin derivatives as new class of DRAK2 inhibitors from high throughput screening” (Bioorg Med Chem Lett, 2016).

Key:
[1] = target: T1, Serine/threonine-protein kinase 17B (Homo sapiens, UniProt O94768); assay: Inhibition of DRAK2 (unknown origin) using MRLC3 peptide as substrate incubated for 2 hrs by ADP-Glo kinase assay
T1 sequence (O94768 whole entry): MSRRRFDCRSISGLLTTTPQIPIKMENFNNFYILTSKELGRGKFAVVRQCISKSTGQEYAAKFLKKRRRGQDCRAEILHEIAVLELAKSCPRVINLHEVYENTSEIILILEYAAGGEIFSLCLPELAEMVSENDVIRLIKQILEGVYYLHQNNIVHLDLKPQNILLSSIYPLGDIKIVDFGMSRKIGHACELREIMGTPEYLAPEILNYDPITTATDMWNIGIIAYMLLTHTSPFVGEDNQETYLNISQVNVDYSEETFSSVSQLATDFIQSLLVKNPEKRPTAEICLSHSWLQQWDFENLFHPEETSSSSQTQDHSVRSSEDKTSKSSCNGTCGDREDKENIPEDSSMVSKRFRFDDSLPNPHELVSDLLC

[2] = target: Death-associated protein kinase 3 (Homo sapiens, UniProt O43293); assay: Inhibition of DAPK3 (unknown origin)
[3] = target: T2, Serine/threonine-protein kinase 17A (Homo sapiens, UniProt Q9UEE5); assay: Inhibition of DRAK1 (unknown origin)
T2 sequence (Q9UEE5 whole entry): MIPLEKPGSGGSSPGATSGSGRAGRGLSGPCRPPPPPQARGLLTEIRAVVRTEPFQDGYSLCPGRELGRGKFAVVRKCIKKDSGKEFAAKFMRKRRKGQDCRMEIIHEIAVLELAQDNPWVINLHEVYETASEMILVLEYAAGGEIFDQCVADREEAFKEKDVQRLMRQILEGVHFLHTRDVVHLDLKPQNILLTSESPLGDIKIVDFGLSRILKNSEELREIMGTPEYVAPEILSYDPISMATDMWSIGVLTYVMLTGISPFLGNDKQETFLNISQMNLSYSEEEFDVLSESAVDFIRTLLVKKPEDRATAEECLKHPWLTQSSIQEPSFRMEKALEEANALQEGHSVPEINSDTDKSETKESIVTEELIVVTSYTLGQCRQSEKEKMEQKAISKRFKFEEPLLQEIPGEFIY

[4] = target: Death-associated protein kinase 2 (Homo sapiens, UniProt Q9UIK4); assay: Inhibition of DAPK2 (unknown origin)
[5] = target: Death-associated protein kinase 1 (Homo sapiens, UniProt P53355); assay: Inhibition of DAPK1 (unknown origin)
[6] = target: T3, Epidermal growth factor receptor (Homo sapiens, UniProt P00533); assay: Inhibition of EGFR (746 to 750) deletion mutant (unknown origin) using peptide substrate incubated for 30 mins by europium donor dye-based plate reader analysis; format: protein assay
Target sequence in this assay (P00533 25-1210 limits assumed, stated change not applied): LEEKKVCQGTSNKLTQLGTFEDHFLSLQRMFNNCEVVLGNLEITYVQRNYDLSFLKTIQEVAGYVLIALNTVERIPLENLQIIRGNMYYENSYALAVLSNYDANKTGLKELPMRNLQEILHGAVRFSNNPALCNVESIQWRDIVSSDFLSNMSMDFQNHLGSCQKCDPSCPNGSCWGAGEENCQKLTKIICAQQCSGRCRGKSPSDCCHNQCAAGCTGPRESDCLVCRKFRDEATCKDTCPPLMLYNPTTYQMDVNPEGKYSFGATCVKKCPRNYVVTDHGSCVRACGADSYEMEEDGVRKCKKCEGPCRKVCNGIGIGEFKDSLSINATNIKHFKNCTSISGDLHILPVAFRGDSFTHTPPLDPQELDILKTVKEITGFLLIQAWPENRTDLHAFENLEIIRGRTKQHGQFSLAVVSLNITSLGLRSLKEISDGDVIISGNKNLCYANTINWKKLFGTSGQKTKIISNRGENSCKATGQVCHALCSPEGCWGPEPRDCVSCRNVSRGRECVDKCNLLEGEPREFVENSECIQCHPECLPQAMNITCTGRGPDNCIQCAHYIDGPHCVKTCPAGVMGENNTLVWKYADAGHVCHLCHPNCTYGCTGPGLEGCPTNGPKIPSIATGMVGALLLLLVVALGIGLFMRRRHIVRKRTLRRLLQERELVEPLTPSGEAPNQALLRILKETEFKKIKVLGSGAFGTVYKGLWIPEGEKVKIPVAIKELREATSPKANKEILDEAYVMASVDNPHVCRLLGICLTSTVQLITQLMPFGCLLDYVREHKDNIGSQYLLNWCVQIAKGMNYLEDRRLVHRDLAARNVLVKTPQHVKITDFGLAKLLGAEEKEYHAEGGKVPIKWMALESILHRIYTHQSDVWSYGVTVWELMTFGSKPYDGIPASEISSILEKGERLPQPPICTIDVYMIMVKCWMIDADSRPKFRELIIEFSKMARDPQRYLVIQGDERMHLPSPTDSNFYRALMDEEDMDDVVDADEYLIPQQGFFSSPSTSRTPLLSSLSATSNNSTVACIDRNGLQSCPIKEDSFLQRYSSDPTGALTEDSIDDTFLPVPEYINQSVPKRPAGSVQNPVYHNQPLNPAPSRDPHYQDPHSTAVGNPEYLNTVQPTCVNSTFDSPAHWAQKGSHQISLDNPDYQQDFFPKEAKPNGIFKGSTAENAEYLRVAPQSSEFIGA

[7] = target: T1, Serine/threonine-protein kinase 17B; assay: Competitive inhibition of DRAK2 (unknown origin) using MRLC3 peptide as substrate incubated for 2 hrs by Lineweaver-Burk plot analysis in presence of ATP
[8] = target: T3, Epidermal growth factor receptor; assay: Inhibition of EGFR (unknown origin) using peptide substrate incubated for 30 mins by europium donor dye-based plate reader analysis
[9] = target: Activated CDC42 kinase 1 (Homo sapiens, UniProt Q07912); assay: Inhibition of AcK1 (unknown origin) using peptide substrate incubated for 30 mins by europium donor dye-based plate reader analysis
[10] = target: Maternal embryonic leucine zipper kinase (Homo sapiens, UniProt Q14680); assay: Inhibition of MELK (unknown origin) using peptide substrate incubated for 30 mins by europium donor dye-based plate reader analysis
[11] = target: ALK tyrosine kinase receptor (Homo sapiens, UniProt Q9UM73); assay: Inhibition of ALK (unknown origin) using peptide substrate incubated for 30 mins by europium donor dye-based plate reader analysis
[12] = target: Insulin receptor (Homo sapiens, UniProt P06213); assay: Inhibition of IRK (unknown origin) using peptide substrate incubated for 30 mins by europium donor dye-based plate reader analysis
[13] = target: Hepatocyte growth factor receptor (Homo sapiens, UniProt P08581); assay: Inhibition of c-MET (unknown origin) using peptide substrate incubated for 30 mins by europium donor dye-based plate reader analysis
Sequence of Hepatocyte growth factor receptor (P08581 whole entry): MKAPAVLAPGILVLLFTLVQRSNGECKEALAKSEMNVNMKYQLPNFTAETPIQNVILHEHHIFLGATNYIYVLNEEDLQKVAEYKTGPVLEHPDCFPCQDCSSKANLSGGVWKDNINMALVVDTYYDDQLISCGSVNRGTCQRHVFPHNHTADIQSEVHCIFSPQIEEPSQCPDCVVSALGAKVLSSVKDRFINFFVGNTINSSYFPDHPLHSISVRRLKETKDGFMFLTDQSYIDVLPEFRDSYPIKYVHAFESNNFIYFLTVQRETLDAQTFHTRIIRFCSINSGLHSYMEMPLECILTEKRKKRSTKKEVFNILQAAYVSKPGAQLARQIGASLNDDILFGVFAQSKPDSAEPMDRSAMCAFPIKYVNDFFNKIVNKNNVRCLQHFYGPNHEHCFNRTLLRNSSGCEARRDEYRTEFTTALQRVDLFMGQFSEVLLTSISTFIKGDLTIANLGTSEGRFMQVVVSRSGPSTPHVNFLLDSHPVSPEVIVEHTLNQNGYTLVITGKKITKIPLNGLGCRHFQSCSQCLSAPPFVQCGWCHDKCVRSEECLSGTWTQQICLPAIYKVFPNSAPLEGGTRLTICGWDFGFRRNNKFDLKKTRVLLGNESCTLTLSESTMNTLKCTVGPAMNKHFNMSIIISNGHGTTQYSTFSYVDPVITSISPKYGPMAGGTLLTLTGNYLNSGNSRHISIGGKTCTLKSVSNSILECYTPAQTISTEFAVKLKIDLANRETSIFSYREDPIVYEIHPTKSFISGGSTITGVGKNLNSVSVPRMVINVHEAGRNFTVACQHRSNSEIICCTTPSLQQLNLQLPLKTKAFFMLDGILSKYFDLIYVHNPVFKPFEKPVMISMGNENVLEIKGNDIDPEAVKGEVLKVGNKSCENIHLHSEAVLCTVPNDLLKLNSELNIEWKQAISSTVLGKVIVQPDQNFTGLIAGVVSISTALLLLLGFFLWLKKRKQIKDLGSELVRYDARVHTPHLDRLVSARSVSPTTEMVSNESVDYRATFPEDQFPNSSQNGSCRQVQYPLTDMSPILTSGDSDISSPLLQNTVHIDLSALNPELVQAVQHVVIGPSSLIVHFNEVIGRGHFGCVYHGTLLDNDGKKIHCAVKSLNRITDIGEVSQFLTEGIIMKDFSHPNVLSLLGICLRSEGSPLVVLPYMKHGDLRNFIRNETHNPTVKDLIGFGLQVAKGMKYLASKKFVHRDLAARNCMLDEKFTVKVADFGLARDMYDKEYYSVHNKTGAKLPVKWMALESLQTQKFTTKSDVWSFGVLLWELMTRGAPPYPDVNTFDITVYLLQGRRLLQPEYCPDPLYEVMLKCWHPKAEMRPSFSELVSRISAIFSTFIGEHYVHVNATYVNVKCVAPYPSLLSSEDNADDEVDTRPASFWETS

Sequence of Insulin receptor (P06213 28-758 limits assumed): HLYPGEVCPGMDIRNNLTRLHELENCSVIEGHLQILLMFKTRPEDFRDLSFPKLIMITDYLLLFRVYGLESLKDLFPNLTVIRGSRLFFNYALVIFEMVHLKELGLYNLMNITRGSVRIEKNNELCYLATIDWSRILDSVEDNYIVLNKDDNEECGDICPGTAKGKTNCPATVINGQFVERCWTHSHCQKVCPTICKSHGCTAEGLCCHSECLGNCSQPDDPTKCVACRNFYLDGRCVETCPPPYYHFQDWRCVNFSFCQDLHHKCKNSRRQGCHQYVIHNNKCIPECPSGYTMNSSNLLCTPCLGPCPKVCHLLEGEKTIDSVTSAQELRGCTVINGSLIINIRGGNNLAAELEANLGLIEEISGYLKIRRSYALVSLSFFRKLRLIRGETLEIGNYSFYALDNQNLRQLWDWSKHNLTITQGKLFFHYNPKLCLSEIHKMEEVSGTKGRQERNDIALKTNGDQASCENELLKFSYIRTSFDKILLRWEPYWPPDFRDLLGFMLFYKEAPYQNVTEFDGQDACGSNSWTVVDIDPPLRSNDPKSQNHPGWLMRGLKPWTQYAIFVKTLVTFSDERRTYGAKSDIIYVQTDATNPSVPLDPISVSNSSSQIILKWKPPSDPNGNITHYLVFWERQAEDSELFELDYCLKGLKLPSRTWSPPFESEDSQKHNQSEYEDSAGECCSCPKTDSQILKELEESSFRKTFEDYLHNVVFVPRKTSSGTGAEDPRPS
Sequence of Insulin receptor (P06213 763-1382 limits assumed): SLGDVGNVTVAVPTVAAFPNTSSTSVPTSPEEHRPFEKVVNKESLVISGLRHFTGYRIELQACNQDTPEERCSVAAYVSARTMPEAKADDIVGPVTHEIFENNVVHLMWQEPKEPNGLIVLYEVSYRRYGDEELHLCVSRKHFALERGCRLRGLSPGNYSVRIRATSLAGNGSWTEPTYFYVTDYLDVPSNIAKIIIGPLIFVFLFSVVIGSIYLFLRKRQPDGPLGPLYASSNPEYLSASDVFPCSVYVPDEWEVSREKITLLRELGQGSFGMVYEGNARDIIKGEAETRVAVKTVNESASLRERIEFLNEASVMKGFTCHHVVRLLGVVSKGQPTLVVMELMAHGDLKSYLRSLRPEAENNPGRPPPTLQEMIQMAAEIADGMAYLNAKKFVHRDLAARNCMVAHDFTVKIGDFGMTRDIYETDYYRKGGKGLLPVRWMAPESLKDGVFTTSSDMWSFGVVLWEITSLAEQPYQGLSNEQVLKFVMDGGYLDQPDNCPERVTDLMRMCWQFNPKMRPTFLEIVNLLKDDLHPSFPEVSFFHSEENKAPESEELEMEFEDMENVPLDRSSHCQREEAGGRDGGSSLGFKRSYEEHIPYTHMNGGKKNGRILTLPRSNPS
Sequence of Death-associated protein kinase 3 (O43293 whole entry): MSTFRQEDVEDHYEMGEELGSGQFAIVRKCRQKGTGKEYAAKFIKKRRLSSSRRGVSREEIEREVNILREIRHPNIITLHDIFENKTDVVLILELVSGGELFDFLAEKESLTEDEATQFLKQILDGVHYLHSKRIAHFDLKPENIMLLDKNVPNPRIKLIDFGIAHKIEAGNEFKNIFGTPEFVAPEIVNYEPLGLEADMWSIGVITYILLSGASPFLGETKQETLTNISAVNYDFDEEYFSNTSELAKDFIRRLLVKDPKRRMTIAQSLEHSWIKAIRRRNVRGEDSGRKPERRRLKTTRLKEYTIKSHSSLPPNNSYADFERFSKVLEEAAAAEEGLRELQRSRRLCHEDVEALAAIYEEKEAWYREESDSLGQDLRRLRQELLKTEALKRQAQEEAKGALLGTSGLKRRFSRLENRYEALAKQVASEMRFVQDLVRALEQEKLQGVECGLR
Sequence of Maternal embryonic leucine zipper kinase (Q14680 whole entry): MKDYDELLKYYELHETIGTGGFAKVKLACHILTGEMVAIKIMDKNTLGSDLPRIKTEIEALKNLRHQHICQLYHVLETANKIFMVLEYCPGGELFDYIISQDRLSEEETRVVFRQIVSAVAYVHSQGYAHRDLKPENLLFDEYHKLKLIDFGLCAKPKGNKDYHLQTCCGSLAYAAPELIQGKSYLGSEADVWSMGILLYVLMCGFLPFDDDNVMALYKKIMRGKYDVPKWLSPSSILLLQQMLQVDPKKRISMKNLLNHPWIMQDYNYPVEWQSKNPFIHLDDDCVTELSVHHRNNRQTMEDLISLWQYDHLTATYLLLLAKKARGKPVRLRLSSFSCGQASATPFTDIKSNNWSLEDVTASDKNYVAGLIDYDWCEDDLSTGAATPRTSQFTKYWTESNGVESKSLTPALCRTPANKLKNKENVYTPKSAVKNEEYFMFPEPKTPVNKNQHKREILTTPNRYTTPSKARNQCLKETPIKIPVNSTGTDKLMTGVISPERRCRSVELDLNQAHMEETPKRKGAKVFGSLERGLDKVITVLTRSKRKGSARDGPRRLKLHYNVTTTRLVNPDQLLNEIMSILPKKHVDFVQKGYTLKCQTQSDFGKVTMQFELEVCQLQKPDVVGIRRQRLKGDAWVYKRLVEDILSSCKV

SMILES | IC50 [1] [nM] | IC50 [3] [nM] | other results
O=C1Nc2ccc(F)cc2/C1=C1/Nc2ccccc2C1=O | > 10000 | – | –
O=C1Nc2ccc(F)cc2/C1=C1/Nc2ccccc2/C1=N\O | 620 | – | –
Cc1ccc2c(c1)/C(=C1/Nc3ccccc3C1=O)C(=O)N2 | > 10000 | – | –
O=C1Nc2ccc(Cl)cc2/C1=C1/Nc2ccccc2C1=O | > 10000 | – | –
Cc1cc(Cl)cc2c1NC(=O)/C2=C1\Nc2ccccc2\C1=N/O | > 10000 | – | –
O=C1Nc2ccccc2/C1=C1/Nc2ccccc2/C1=N\O | 710 | – | –
CCCCC(=O)Nc1ccc2c(c1)/C(=C1/Nc3ccccc3/C1=N\O)C(=O)N2 | 3 | 51 | IC50 [2]: 1800 nM; IC50 [6]: > 10000 nM; Ki [7]: 0.26 nM; IC50 [8]: > 10000 nM; IC50 [9]: > 10000 nM; IC50 [10]: > 10000 nM; IC50 [4]: 2300 nM; IC50 [11]: > 10000 nM; IC50 [12]: > 10000 nM; IC50 [5]: 1800 nM; IC50 [13]: > 10000 nM
O=C1Nc2ccc(NC(=O)c3cc([N+](=O)[O-])cc([N+](=O)[O-])c3)cc2/C1=C1/Nc2ccccc2/C1=N\O | 77 | 24 | –
O=C1Nc2ccc(NC(=O)c3ccccc3C(F)(F)F)cc2/C1=C1/Nc2ccccc2/C1=N\O | 120 | 320 | –
O=C(/C=C/c1ccccc1)Nc1ccc2c(c1)/C(=C1/Nc3ccccc3/C1=N\O)C(=O)N2 | 700 | 1100 | –
O=C1Nc2ccc(NC(=O)c3ccc(F)cc3)cc2/C1=C1/Nc2ccccc2/C1=N\O | 1200 | 780 | –
Cc1ccc(C(=O)Nc2ccc3c(c2)/C(=C2/Nc4ccccc4/C2=N\O)C(=O)N3)cc1 | 1300 | 1300 | –
O=C1Nc2ccc(NC(=O)c3ccc([N+](=O)[O-])cc3)cc2/C1=C1/Nc2ccccc2/C1=N\O | 1300 | 500 | –
O=C1Nc2ccc(NC(=O)c3cccc4ccccc34)cc2/C1=C1/Nc2ccccc2/C1=N\O | 1500 | 700 | –
CC(C)(C)CC(=O)Nc1ccc2c(c1)/C(=C1/Nc3ccccc3/C1=N\O)C(=O)N2 | 14 | 24 | IC50 [2]: > 10000 nM; IC50 [4]: > 10000 nM; IC50 [5]: > 10000 nM
Cc1cc(C)c2c(c1)/C(=C1/Nc3ccccc3C1=O)C(=O)N2 | > 10000 | – | –

The next lines start with results.

IC50 [1] [nM] | IC50 [3] [nM] | SMILES | other results
6200 | – | O=C1Nc2ccc(I)cc2/C1=C1/Nc2ccccc2C1=O | –
14 | 120 | CC(C)=CC(=O)Nc1ccc2c(c1)/C(=C1/Nc3ccccc3/C1=N\O)C(=O)N2 | IC50 [2]: 450 nM; IC50 [4]: 570 nM; IC50 [5]: 450 nM
330 | 360 | COc1ccc(C(=O)Nc2ccc3c(c2)/C(=C2/Nc4ccccc4/C2=N\O)C(=O)N3)cc1 | –
3200 | 3000 | O=C1Nc2ccc(NC(=O)c3ccc(Cl)cc3)cc2/C1=C1/Nc2ccccc2/C1=N\O | –
200 | 360 | O=C1Nc2ccc(NC(=O)c3ccccc3)cc2/C1=C1/Nc2ccccc2/C1=N\O | –
290 | 250 | O=C1Nc2ccc(NC(=O)c3ccccc3F)cc2/C1=C1/Nc2ccccc2/C1=N\O | –
120 | 110 | O=C1Nc2ccc(NC(=O)C3CCCCC3)cc2/C1=C1/Nc2ccccc2/C1=N\O | –
> 10000 | – | O=C1Nc2ccccc2/C1=C1/Nc2cccc(Br)c2C1=O | –
950 | 460 | O=C(COc1cccc(Cl)c1)Nc1ccc2c(c1)/C(=C1/Nc3ccccc3/C1=N\O)C(=O)N2 | –
8 | 21 | O=C1Nc2ccc(NC(=O)C3CC3)cc2/C1=C1/Nc2ccccc2/C1=N\O | IC50 [2]: 140 nM; IC50 [4]: 170 nM; IC50 [5]: 140 nM
> 10000 | – | Cc1cc(Cl)cc2c1NC(=O)/C2=C1\Nc2ccccc2C1=O | –
10 | 12 | CCCC(=O)Nc1ccc2c(c1)/C(=C1/Nc3ccccc3/C1=N\O)C(=O)N2 | IC50 [2]: 510 nM; IC50 [6]: 8000 nM; IC50 [8]: > 10000 nM; IC50 [9]: > 10000 nM; IC50 [10]: 1000 nM; IC50 [4]: 590 nM; IC50 [11]: > 10000 nM; IC50 [12]: > 10000 nM; IC50 [5]: 510 nM; IC50 [13]: > 10000 nM
> 10000 | – | O=C1Nc2ccc([N+](=O)[O-])cc2/C1=C1/Nc2cccc(Br)c2C1=O | –
21 | 32 | CC(C)(C)C(=O)Nc1ccc2c(c1)/C(=C1/Nc3ccccc3/C1=N\O)C(=O)N2 | IC50 [2]: 700 nM; IC50 [6]: > 10000 nM; IC50 [8]: > 10000 nM; IC50 [9]: > 10000 nM; IC50 [10]: 2800 nM; IC50 [4]: 830 nM; IC50 [11]: > 10000 nM; IC50 [12]: > 10000 nM; IC50 [5]: 700 nM; IC50 [13]: > 10000 nM
1400 | – | Nc1ccc2c(c1)/C(=C1/Nc3ccccc3C1=O)C(=O)N2 | –
250 | – | Nc1ccc2c(c1)/C(=C1/Nc3ccccc3/C1=N\O)C(=O)N2 | –
> 10000 | – | O=C1Nc2ccccc2/C1=C1/Nc2ccccc2C1=O [INDIRUBIN] | –
